What was measured:
[1] = molecular target: T1, Metabotropic glutamate receptor 5 (Rattus norvegicus, UniProt P31424); test: Activity at rat mGlu5 receptor expressed in CHO cells assessed as inhibition of quisqualate-stimulated calcium mobilization by FLIPR assay; format: functional, cell-based
Rattus norvegicus = test: Anxiolytic activity in thirsty naive rat assessed as shock episodes at 10 mg/kg, po by Vogel assay relative to control; format: functional
[2] = molecular target: T1, Metabotropic glutamate receptor 5; test: Displacement of [3H]MPEP from mGlu5 receptor in rat brain; format: tissue-based

T1 sequence (P31424 whole entry): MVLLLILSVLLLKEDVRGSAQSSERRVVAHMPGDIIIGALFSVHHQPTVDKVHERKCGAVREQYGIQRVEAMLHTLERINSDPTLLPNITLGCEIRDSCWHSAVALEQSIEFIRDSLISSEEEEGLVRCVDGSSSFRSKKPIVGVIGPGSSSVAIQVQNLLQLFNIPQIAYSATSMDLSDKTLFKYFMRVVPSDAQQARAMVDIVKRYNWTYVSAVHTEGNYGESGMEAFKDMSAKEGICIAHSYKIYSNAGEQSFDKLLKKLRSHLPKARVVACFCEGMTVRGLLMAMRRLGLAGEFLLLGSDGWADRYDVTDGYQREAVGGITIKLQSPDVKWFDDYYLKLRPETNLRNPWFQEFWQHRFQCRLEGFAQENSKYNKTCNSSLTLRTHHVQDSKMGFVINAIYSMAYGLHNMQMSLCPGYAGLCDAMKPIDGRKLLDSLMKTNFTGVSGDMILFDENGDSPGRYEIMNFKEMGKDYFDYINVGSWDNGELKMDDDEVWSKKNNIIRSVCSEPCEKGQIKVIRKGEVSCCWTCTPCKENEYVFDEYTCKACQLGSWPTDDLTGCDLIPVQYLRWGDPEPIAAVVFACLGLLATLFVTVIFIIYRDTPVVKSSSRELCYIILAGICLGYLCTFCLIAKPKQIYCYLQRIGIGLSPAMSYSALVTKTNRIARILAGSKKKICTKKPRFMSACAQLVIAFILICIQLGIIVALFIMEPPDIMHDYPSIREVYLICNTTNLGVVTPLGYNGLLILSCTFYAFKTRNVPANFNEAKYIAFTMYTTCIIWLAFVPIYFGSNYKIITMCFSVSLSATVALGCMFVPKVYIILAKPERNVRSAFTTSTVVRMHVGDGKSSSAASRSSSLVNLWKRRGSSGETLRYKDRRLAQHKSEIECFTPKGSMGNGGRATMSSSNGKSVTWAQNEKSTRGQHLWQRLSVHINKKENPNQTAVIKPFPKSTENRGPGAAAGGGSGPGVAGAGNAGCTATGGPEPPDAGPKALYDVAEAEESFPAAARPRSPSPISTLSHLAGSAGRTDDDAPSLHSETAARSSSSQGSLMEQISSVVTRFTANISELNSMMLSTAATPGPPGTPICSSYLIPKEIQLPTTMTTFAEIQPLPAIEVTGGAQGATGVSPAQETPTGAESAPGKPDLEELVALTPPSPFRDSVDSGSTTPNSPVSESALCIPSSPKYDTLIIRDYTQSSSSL

Row | Compound | IC50 [1] [µM] | Ki [2] [µM] | Activity (Rattus norvegicus) [%]
1 | COc1ccc(-c2ccc3ccc(C)nc3c2)cc1 | 16 | – | –
2 | Cc1ccc2ccc(-c3cc(C#N)cc(OCC(C)C)c3)cc2n1 | 12 | – | –
3 | Cc1ccc2ccc(-c3cccc(C(N)=O)c3)cc2n1 | > 10 | – | –
4 | Cc1ccc2ccc(-c3cccc(OC(F)(F)F)c3)cc2n1 | > 10 | – | –
5 | Cc1ccc2ccc(-c3cccc(C(F)(F)F)c3)cc2n1 | > 10 | – | –
6 | COCc1cccc(-c2ccc3ccc(C)nc3c2)c1 | 5.8 | – | –
7 | Cc1ccc2ccc(-c3ccc(C#N)cc3)cc2n1 | > 10 | – | –
8 | Cc1cccc(C#Cc2ccccc2)n1 | – | – | 80
9 | Cc1ccc2ccc(-c3cccc(CO)c3)cc2n1 | 8.7 | – | –
10 | Cc1ccc2ccc(-c3cccc(O)c3)cc2n1 | 19 | – | –
11 | Cc1ccc2ccc(-c3cccc(Cl)c3)cc2n1 | 14 | – | –
12 | Cc1ccc2ccc(-c3ccccc3)cc2n1 | 9 | – | –
13 | COc1ccccc1-c1ccc2ccc(C)nc2c1 | 4.2 | – | –
14 | CC(=O)c1cccc(-c2ccc3ccc(C)nc3c2)c1 | 4.76 | – | –
15 | Cc1ccc2ccc(-c3ccccc3C#N)cc2n1 | 9.8 | – | –

The next lines start with results.

Row | IC50 [1] [µM] | Ki [2] [µM] | Compound | Activity (Rattus norvegicus) [%]
16 | 0.51 | – | Cc1ccc2ccc(-c3cccnc3)cc2n1 | –
17 | 0.072 | – | CCSc1cc(C#N)cc(-c2ccc3ccc(C)nc3c2)c1 | –
18 | 0.0014 | – | Cc1ccc2ccc(-c3cc(Cl)cc(C#N)c3)cc2n1 | –
19 | 0.002 | – | COCc1cc(C#N)cc(-c2ccc3ccc(C)nc3c2)c1 | –
20 | 0.082 | – | COCCOc1cc(C#N)cc(-c2ccc3ccc(C)nc3c2)c1 | –
21 | 0.013 | – | Cc1ccc2ccc(-c3cc(Br)cc(C#N)c3)cc2n1 | –
22 | 0.86 | – | COc1cccc(-c2ccc3ccc(C)nc3c2)c1 | –
23 | 0.31 | – | Cc1ccc2ccc(-c3cc(C#N)cc(OC(C)C)c3)cc2n1 | –
24 | 0.0016 | – | Cc1cc(C#N)cc(-c2ccc3ccc(C)nc3c2)c1 | –
25 | 1.8 | – | Cc1ccc2ccc(-c3cccc(F)c3)cc2n1 | –
26 | 3.4 | – | Cc1cccc(-c2ccc3ccc(C)nc3c2)c1 | –
27 | 0.017 | – | CCOc1cc(C#N)cc(-c2ccc3ccc(C)nc3c2)c1 | –
28 | 1.09 | – | CCS(=O)(=O)c1cc(C#N)cc(-c2ccc3ccc(C)nc3c2)c1 | –
29 | 0.075 | – | Cc1ccc2ccc(-c3cc(C#N)cc(OC(F)(F)F)c3)cc2n1 | –
30 | 0.0008 | 0.022 | Cc1ccc2ccc(-c3cc(F)cc(C#N)c3)cc2n1 | 100
31 | 0.36 | – | Cc1ccc2ccc(-c3cc(O)cc(C#N)c3)cc2n1 | –
32 | 0.0024 | – | COc1cc(C#N)cc(-c2ccc3ccc(C)nc3c2)c1 | –
33 | 0.43 | – | Cc1ccc2ccc(-c3cccc(CC#N)c3)cc2n1 | –
34 | 0.002 | – | Cc1ccc2ccc(-c3cc(C#N)cc(C#N)c3)cc2n1 | –
35 | 0.0077 | 0.072 | Cc1ccc2ccc(-c3cccc(C#N)c3)cc2n1 | –
36 | 0.023 | – | Cc1ccc2ccc(-c3cncc(C#N)c3)cc2n1 | –
